In one assay the test system is E. coli 14. Kind of assay: Minimum inhibitory concentration (MIC) in vitro, liquid medium test tube series dilution test. The format is cell-based. The following applies: 24 hours incubation at 37° C. On the procedure: (§1) They were determined in a liquid medium in a test tube series dilution test, the readings being taken after 24 hours incubation at 37° C.
(§2) The numbers allotted to the compounds of the invention in Table 1 correspond to the numbers of the Preparative Examples in which the preparation of the particular compounds are described.
(§3) The MIC is indicated by the non-turbid test tube in the dilution series. A complete medium of the following composition was used as the growth medium: […]

The subject of a further assay is E. coli C 165. The assay is described as above. The format is cell-based. The conditions noted are these: 24 hours incubation at 37° C. On the procedure:
(§4) Table 1, which follows, specifies the minimum inhibitory concentrations (MIC) in vitro, in U/ml of nutrient medium of typical compounds of the invention. They were determined in a liquid medium in a test tube series dilution test, the readings being taken after 24 hours incubation at 37° C.
as §2, §3

The next assay has as its system Staph. aureus 133. Described as above. The following applies: 24 hours incubation at 37° C. Type of assay: cell-based. On the procedure:
as §4, §2, §3

A further assay concerns Staph. aureus 1756. The description is as above. Type of assay: cell-based. The following applies: 24 hours incubation at 37° C. On the procedure:
as §4, §2, §3

The test system of the next assay is Ent. ATCC 9790. The assay is described as above. Type of assay: cell-based, Enterococcus. The following applies: 24 hours incubation at 37° C. On the procedure: as §1, §2, §3
For another assay, the system named is E. coli BE. Kind of assay: Turbidity test in Muller-Hinton nutrient broth at 100 μg/ml. The following applies: 24 hours. The format is cell-based.
A further assay has as its system Salmonella sp. Described as above. Type of assay: cell-based.
Another assay concerns Shigella sp. The description is as above. The format is cell-based.
For assay [1], the system named is Proteus indolnegativ, sp. The description is as above. The format is cell-based.
Assay [2] has as its system Pasteurella pseudotuberculosis. Type of assay: cell-based. The conditions noted are these: 100 μg/ml, 24 hours.
In another assay the test system is Brucella sp. The format is cell-based. The conditions noted are these: 100 μg/ml, 24 hours.
In another assay the test system is Haemophilus influenzae. The assay can be described thus: Turbidity test in Muller-Hinton nutrient broth at 100 μg/ml. Type of assay: cell-based.
The test system of the next assay is Bordetella bronciseptica. The description is as above. The format is cell-based.
The test system of assay [3] is Staphylococcus aureus 133. Described as above. The format is cell-based.
Assay [4] deals with Neisseria catarrhalis sp. Described as above. The format is cell-based.
For assay [5], the system named is Diplococcus pneumoniae sp. Described as above. Type of assay: cell-based.
The test system of assay [6] is Streptococcus pyogenes W. The assay is described as above. Type of assay: cell-based.
For the next assay, the system named is Enterococcus sp. The assay is described as above. The format is cell-based.
The next assay has as its system Lactobacillus sp. The description is as above. Type of assay: cell-based.
For assay [7], the system named is Corynebacterium diphteriae gravis. Described as above. The format is cell-based.
Assay [8] relates to Corynebacterium pyrogenes M. The assay is described as above. Type of assay: cell-based.
The subject of a further assay is Clostridium botulinium. The format is cell-based.
The next assay concerns Clostridium tetani. Type of assay: cell-based. The conditions noted are these: 100 μg/ml, 24 hours.

Each structure is given as a SMILES string. Where a name gives a salt, the structure may show the parent alone.

`CC1(C)S[C@@H]2[C@H](NC(=O)C3CC(Cl)C3)C(=O)N2[C@H]1C(=O)O` (some centres unmarked) [Example 4, sodium salt of 6-(3-chloro-cyclobutylcarboxamido)-penicillanic acid]: the MIC was 32-64 U/ml against E. coli 14; 128-256 U/ml in the assay on E. coli C 165; 2-4 U/ml with Staph. aureus 133; 32-64 U/ml in the assay with Staph. aureus 1756; 8-16 U/ml with Ent. ATCC 9790.

With `CC1(C)S[C@@H]2[C@H](NC(=O)C3(C)CC3(Cl)Cl)C(=O)N2[C@H]1C(=O)O` (some centres unmarked) [Example 1, sodium salt of 6-(2,2-dichloro-1-methyl-cyclopropylcarboxamido)-penicillanic acid], the MIC in the assay with E. coli 14 is 128 U/ml; with Staph. aureus 133 it was 0.2 U/ml; with Staph. aureus 1756 it was 32-64 U/ml; in the assay on Ent. ATCC 9790, 16-32 U/ml. The “freedom from turbidity (anti-bacterial action)” value (“freedom from turbidity” below) (in the assay with E. coli BE; in the assay on Salmonella sp.; in the assay on Shigella sp.; in assay [1]; in [2]; in the assay on Brucella sp.) was “free from turbidity” each time. Further, the “freedom from turbidity” value (with Haemophilus influenzae; in the assay on Bordetella bronciseptica; in assay [3]; in [4]; in assay [5]; in [6]) was “free from turbidity” each time. The “freedom from turbidity” value (with Enterococcus sp.; in the assay with Lactobacillus sp.; in [7]; in [8]; with Clostridium botulinium; in the assay on Clostridium tetani) was “free from turbidity” in each case.

`CC1(C)S[C@@H]2[C@H](NC(=O)C3(Cl)CCCC3=O)C(=O)N2[C@H]1C(=O)O` (some centres unmarked) [Example 8, Sodium salt of 6-(cyclopentanone-2-chloro-2-carboxamido)-penicillanic acid]: the MIC with E. coli 14 was 128 U/ml; in the assay on Staph. aureus 133, 2-4 U/ml; against Ent. ATCC 9790 it was 128 U/ml.

Turning to `CC1(C)S[C@@H]2[C@H](NC(=O)C3CC(Cl)C(Cl)C3)C(=O)N2[C@H]1C(=O)O` (some centres unmarked) [Example 7, sodium salt of 6-(3,4-dichlorocyclopentylcarboxamido)-penicillanic acid], the MIC against E. coli 14 is given as 32 U/ml; in the assay with E. coli C 165, 128 U/ml; against Staph. aureus 133, 0.1 U/ml; in the assay on Staph. aureus 1756, 32-64 U/ml; in the assay with Ent. ATCC 9790, 8-16 U/ml.

`CC1(C)S[C@@H]2[C@H](NC(=O)C3CC3C#N)C(=O)N2[C@H]1C(=O)O` (some centres unmarked) [Example 3, sodium salt of 6-(2-cyano-1-cyclopropylcarboxamido)-penicillanic acid]: the MIC in the assay on E. coli 14 is listed as 128-256 U/ml; against Staph. aureus 133, 2-4 U/ml; in the assay on Ent. ATCC 9790, 64-128 U/ml.

As for `CC1(C)S[C@@H]2[C@H](NC(=O)C3CCC(Cl)C3)C(=O)N2[C@H]1C(=O)O` (some centres unmarked) [Example 6, sodium salt of 6-(4-chloro-1-cyclopentylcarboxamide)-penicillanic acid], the MIC is on record as 32 U/ml in the assay with E. coli 14; 128 U/ml against E. coli C 165; 0.1 U/ml against Staph. aureus 133; 32-64 U/ml against Staph. aureus 1756; 8-16 U/ml against Ent. ATCC 9790.

Turning to `CC1(C)S[C@@H]2[C@H](NC(=O)C3(C#N)CCC3)C(=O)N2[C@H]1C(=O)O` [Example 5, sodium salt of 6(1-cyano-1-cyclobutylcarboxamido)-penicillanic acid], the MIC with E. coli 14 is recorded as 32-64 U/ml; in the assay with E. coli C 165 it was 128 U/ml; in the assay with Staph. aureus 133, 0.2 U/ml; in the assay on Staph. aureus 1756, 128 U/ml; in the assay on Ent. ATCC 9790, 8 U/ml.

For the compound `CC1(C)S[C@@H]2[C@H](NC(=O)C3(C)CC3(Br)Br)C(=O)N2[C@H]1C(=O)O` (some centres unmarked) [Example 2, sodium salt of 6-(2,2-dibromo-1-methyl-cyclopropyl-carboxamido)-penicillanic acid], the MIC against E. coli 14 is given as 128 U/ml; in the assay on Staph. aureus 133, 0.2 U/ml; against Staph. aureus 1756, 128 U/ml; in the assay on Ent. ATCC 9790, 32 U/ml.

`CC1(C)S[C@@H]2[C@H](NC(=O)C3CCC(Cl)CC3)C(=O)N2[C@H]1C(=O)O` (some centres unmarked) [Example 9, sodium salt of 6-(4-chloro-1-cyclohexylcarboxamido)-penciillanic acid]: the MIC against E. coli 14 was 64 U/ml; against Staph. aureus 133 it was 0.1 U/ml; in the assay on Staph. aureus 1756, 64 U/ml; in the assay with Ent. ATCC 9790, 8-16 U/ml.

Values taken from patent US3954730A, “6-(Substituted-cycloalkylcarboxamide) penicillanic acids” (Bayer Aktiengesellschaft, priority 1973, dated 1976).
